The test system of assay [1] is Ba/F3_CSF-1R (stably expressing human CSF-1R kinase). Put plainly: Cell proliferation assay, Ba/F3_CSF-1R. The conditions noted are these: BaF3, 72 h, Ba/F3_CSF-1R cells, 72 hours treatment; read-out: CSF-1R BaF3 EC50. The assay is classed as cell-based.
The test system of another assay is EOC2 cell. In words: Cell proliferation assay, EOC2. The assay is classed as cell-based, mouse. The conditions noted are these: Mus musculus, 72 h, EOC2 cells, 72 hours treatment; read-out: ECO2 EC50.
The target in a further assay is CSF-1R (Homo sapiens (Human), UniProt P07333). In words: Biochemical HTRF kinase assay, CSF-1R.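 Further: enzyme incubated with inhibitor plus a substrate and ATP mix for one hour at room temperature before HTRF detection.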 Conditions: Table 2; recombinant human CSF-1R.

The record followed here is patent US20250360145A1, “CSF-1R INHIBITORS AND USES THEREOF” (Myrobalan Therapeutics, Inc., priority 2022, published 2025).

SMILES strings stand for the structures. Some results are limits rather than exact numbers.

CSF-1R, sequence (P07333 20-972): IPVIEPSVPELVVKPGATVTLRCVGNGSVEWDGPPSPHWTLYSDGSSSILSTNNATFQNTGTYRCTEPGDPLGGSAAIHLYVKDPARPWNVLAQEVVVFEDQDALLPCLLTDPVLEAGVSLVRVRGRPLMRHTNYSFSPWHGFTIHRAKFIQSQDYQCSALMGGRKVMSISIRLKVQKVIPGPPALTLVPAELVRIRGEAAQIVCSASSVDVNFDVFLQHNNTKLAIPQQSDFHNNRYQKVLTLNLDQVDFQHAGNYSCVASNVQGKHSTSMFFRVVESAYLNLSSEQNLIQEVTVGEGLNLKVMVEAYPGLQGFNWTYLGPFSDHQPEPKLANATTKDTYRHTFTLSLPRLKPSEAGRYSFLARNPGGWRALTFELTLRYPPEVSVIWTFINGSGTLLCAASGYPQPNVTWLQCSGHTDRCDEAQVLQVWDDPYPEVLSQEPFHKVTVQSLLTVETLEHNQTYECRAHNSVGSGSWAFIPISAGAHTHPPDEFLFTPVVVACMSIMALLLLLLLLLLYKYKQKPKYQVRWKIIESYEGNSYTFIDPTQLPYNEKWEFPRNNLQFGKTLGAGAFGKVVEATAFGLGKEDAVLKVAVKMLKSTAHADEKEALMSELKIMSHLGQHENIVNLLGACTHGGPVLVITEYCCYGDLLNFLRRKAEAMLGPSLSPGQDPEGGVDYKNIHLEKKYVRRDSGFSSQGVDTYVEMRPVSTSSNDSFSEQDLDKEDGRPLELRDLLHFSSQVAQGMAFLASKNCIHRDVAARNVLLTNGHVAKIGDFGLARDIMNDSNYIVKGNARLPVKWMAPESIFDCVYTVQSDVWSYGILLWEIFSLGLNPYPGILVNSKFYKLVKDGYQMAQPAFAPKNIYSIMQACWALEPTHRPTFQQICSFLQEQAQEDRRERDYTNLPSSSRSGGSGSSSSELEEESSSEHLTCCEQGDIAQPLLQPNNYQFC

By EC50 is commonly meant the midpoint of the concentration-response curve. Usually IC50 stands for the concentration that gives 50% inhibition. In the case of `COc1cnc2c(Cc3cnc(OCc4cc(C(C)(C)OC)n(C)n4)c(OC)c3)ccnc2c1` [Example 113], the EC50 was determined as 348 nM in assay [1] and 143 nM in the assay with EOC2 cell. The half-maximal inhibitory concentration (IC50) at CSF-1R is 12.3 nM.
`COc1cnc2c(Cc3cnc(OCc4cc(C(C)C)nn4C)c(OC)c3)ccnc2c1` [Example 106]: the EC50 in assay [1] came to 95.9 nM; in the assay with EOC2 cell, 76.3 nM. Moreover, on CSF-1R, the IC50 is 2.6 nM.
In the same order, the values of `COc1cnc2c(Cc3cnc(OCc4ccc5nccn5n4)c(OC)c3)ccnc2c1` [Example 129] are 307 nM, 166 nM and 42.7 nM.
In the same order, the values of `COc1ccc(COc2ncc(Cc3ccnc4cc(N5CC(OC)C5)cnc34)cc2OC)nc1` [Example 141] are 5.8 nM, 3.7 nM and 7.1 nM.
Consider `COc1ccc(COc2ncc(Cc3ccnc4cc(N5CCNCC5)cnc34)cc2OC)nc1` [Example 135], for which the EC50 in assay [1] worked out at 25.8 nM; in the assay with EOC2 cell, 66.5 nM. On CSF-1R, the half-maximal inhibitory concentration (IC50) worked out at 22.4 nM.
Consider `COc1cnc2c(Cc3cnc(OCc4cnc(OC)cn4)c(OC)c3)ccnc2c1` [Example 44], for which the EC50 in assay [1] was 457 nM; in the assay with EOC2 cell, 171 nM. At CSF-1R, the IC50 amounted to 8.6 nM.
In the same order, the values of `COc1cnc2c(Cc3cnc(OCc4ccc(C(F)(F)F)cn4)c(OC)c3)ccnc2c1` [Example 61] are 70.6 nM, 47.4 nM and 3.9 nM.
On to `COc1cnc2c(Cc3ccn4nc(C5CCOCC5)cc4c3)ccnc2c1` [Example 158, 3-methoxy-8-((2-(tetrahydro-2H-pyran-4-yl)pyrazolo[1,5-a]pyridin-5-yl)methyl)-1,5-naphthyridine], for which the concentration for a half-maximal effect (EC50) (in assay [1]; in the assay with EOC2 cell) was above 1000 nM each time. In addition, the IC50 on CSF-1R was above 1000 nM.
On to `COc1ccc2c(Cc3ccc(OCc4ccn5ccnc5c4)c(OC)c3)ccnc2c1` [Example 6, 4-(4-(imidazo[1,2-a]pyridin-7-ylmethoxy)-3-methoxybenzyl)-7-methoxy quinoline], for which the EC50 in assay [1] stood at 551 nM; in the assay with EOC2 cell, 592 nM. Moreover, on CSF-1R, the IC50 amounted to 8.2 nM.
In the case of `COc1cnc2c(Cc3cnc(OCc4cccc(=O)n4C)c(OC)c3)ccnc2c1` [Example 125], the EC50 was above 1000 nM in assay [1] and 950 nM in the assay on EOC2 cell. In addition, the IC50 at CSF-1R was found to be 522 nM.
Take `COc1ccc(COc2ncc(Cc3ccnc4cc(-c5cnn(C)c5)cnc34)cc2OC)nc1` [Example 130]: the EC50 in assay [1] stood at 2 nM; with EOC2 cell, 1.5 nM. In addition, the IC50 on CSF-1R was 1.6 nM.
Turning to `COc1cnc2c(Cc3cnc(OCc4cc5n(n4)[C@@H]4C[C@@H]4C5)c(OC)c3)ccnc2c1` [Example 120], the EC50 in assay [1] amounted to 43.7 nM; with EOC2 cell it was 18 nM. Further, the IC50 at CSF-1R amounted to 1.9 nM.
In the same order, the values of `COc1ccc(COc2ncc(Cc3ccnc4cc(C)cnc34)cc2OC)nc1` [Example 63] are 236 nM, 688 nM and 16.7 nM.
In the same order, the values of `COc1ccc(COc2ccc(Cc3ccnc4cc(OC)cnc34)cc2OC)cc1` [Example 4] are 44.6 nM, 22.6 nM and 8.7 nM.
Take `CCc1cc(COc2ncc(Cc3ccnc4cc(OC)cnc34)cc2OC)on1` [Example 57]: the EC50 in assay [1] is 178 nM; in the assay on EOC2 cell, 98.6 nM. Further, the IC50 at CSF-1R amounted to 19 nM.
For the compound `COc1cnc2c(Cc3ccc4nc(C5CCOCC5)cn4c3)ccnc2c1` [Example 156], the EC50 (in assay [1]; with EOC2 cell) was above 1000 nM each time. Further, the IC50 on CSF-1R is above 1000 nM.
Consider `COc1cnc2c(Cc3cnc(OCc4ccc(=O)n(C)c4)c(OC)c3)ccnc2c1` [Example 67], for which the EC50 (in assay [1]; with EOC2 cell) was above 1000 nM throughout. In addition, at CSF-1R, the IC50 turned out to be 9.3 nM.
For `COc1cnc2c(Cc3cnc(OCc4cccc(C(=O)N(C)C)n4)c(OC)c3)ccnc2c1` [Example 117], the EC50 in assay [1] came to 344 nM; with EOC2 cell, 170 nM. In addition, the IC50 on CSF-1R was determined as 21.1 nM.
In the same order, the values of `COc1ccc(COc2ncc(Cc3ccnc4cc(-n5cc(C)cn5)cnc34)cc2OC)nc1` [Example 142] are 7.3 nM, 4.8 nM and 13.8 nM.
In the case of `COc1cnc(COc2ccc(Cc3ccnc4cc(OC)ccc34)cc2OC)nc1` [Example 40], the EC50 is above 1000 nM in assay [1] and 956 nM with EOC2 cell. For the same compound, on CSF-1R, the IC50 worked out at 93.7 nM.
In the case of `COc1cnc2c(Cc3cnc(OCc4cc5n(n4)C[C@H](C(F)(F)F)C5)c(OC)c3)ccnc2c1` [Example 110], the EC50 in assay [1] worked out at 109 nM; in the assay on EOC2 cell, 36.2 nM. The IC50 on CSF-1R stood at 3.4 nM.
Turning to `COc1ccc(COc2ncc(Cc3ccnc4ccc(OC)nc34)cc2OC)nc1` [Example 53], the EC50 amounted to 338 nM in assay [1] and 278 nM in the assay with EOC2 cell. Besides, on CSF-1R, the IC50 came out at 60.1 nM.
In the same order, the values of `COc1ccc(COc2ncc(Cc3ccnc4cc(N5CCC(OC)C5)cnc34)cc2OC)nc1` (stereo not drawn) [Example 126] are 3.8 nM, 2.4 nM and 12.2 nM.
On to `COc1cnc2c(Cc3cnc(OCc4cc5n(n4)CCCOC5)c(OC)c3)ccnc2c1` [Example 107], for which the EC50 in assay [1] was found to be 65.9 nM; with EOC2 cell, 37.1 nM. In addition, at CSF-1R, the IC50 worked out at 1.6 nM.
`COc1ccc(COc2ccc(Cc3ccnc4cnccc34)cc2OC)cc1` [Example 2, 4-(3-methoxy-4-((4-methoxybenzyl)oxy)benzyl)-1,7-naphthyridine]: the EC50 in assay [1] was 75 nM; with EOC2 cell it was 126 nM. In addition, the IC50 on CSF-1R amounted to 13.4 nM.
For `COc1cnc2c(Cc3cnc(OCc4nc5cccnc5n4C)c(OC)c3)ccnc2c1` [Example 132], the 50% effective concentration (EC50) (in assay [1]; in the assay with EOC2 cell) was above 1000 nM each time. Further, at CSF-1R, the IC50 turned out to be 879 nM.
With `COc1cnc2c(Cc3cnc(OCc4ccc(OC)nn4)c(OC)c3)ccnc2c1` [Example 32, 3-methoxy-8-((5-methoxy-6-((6-methoxypyridazin-3-yl)methoxy)pyridin-3-yl)methyl)-1,5-naphthyridine], the EC50 in assay [1] was determined as 267 nM; in the assay with EOC2 cell, 129 nM. Moreover, on CSF-1R, the IC50 is 20.1 nM.
In the same order, the values of `COc1ccc(COc2ncc(Cc3ccnc4cc(-c5ccccn5)cnc34)cc2OC)nc1` [Example 139] are 8.8 nM, 7.9 nM and 11.3 nM.
In the same order, the values of `COc1cnc2c(Cc3cnc(OCc4nc(C)no4)c(OC)c3)ccnc2c1` [Example 70] are above 1000 nM, above 1000 nM and 272 nM.
Take `COc1ccc(COc2ncc(Cc3ccnc4cc(-n5ccnc5C)cnc34)cc2OC)nc1` [Example 143]: the results for the EC50 (in assay [1]; with EOC2 cell) were 45.9 nM and 57.5 nM, respectively. The IC50 on CSF-1R was found to be 15.7 nM.
As for `COc1ccc(COc2ncc(Cc3ccnc4cc(N5CCC5)cnc34)cc2OC)nc1` [Example 127], the EC50 in assay [1] amounted to 28 nM; in the assay on EOC2 cell, 25.4 nM. The IC50 on CSF-1R is 22.3 nM.
Regarding `COc1cnc2c(Cc3ccc4nc(N5CCC(OC)CC5)ncc4c3)ccnc2c1` [Example 152], the EC50 (in assay [1]; in the assay on EOC2 cell) was above 1000 nM each time. For the same compound, the IC50 on CSF-1R was above 1000 nM.
With `COc1cnc2c(Cc3cnc(OCc4cc5cnccn5n4)c(OC)c3)ccnc2c1` [Example 145], the 50% effective concentration (EC50) is 229 nM in assay [1] and 178 nM in the assay on EOC2 cell. Also, at CSF-1R, the half-inhibitory concentration (IC50) came to 39.1 nM.
In the same order, the values of `COc1cnc2c(Cc3cnc(OCc4cc5n(n4)C[C@@H](F)C5)c(OC)c3)ccnc2c1` [Example 128] are 21.5 nM, 4.9 nM and 4.9 nM.
In the same order, the values of `CCn1cc(COc2ncc(Cc3ccnc4cc(OC)cnc34)cc2OC)cn1` [Example 47] are above 1000 nM, above 1000 nM and 2 nM.
In the same order, the values of `COc1cnc2c(Cc3cnc(OCc4ccc5cnn(C)c5n4)c(OC)c3)ccnc2c1` [Example 122] are 131 nM, 108 nM and 14 nM.
As to `COc1cnc2c(Cc3cnc(OCc4ccnn4C)c(OC)c3)ccnc2c1` [Example 49], the EC50 (in assay [1]; in the assay on EOC2 cell) was above 1000 nM throughout. The concentration for half-maximal inhibition (IC50) at CSF-1R was determined as 62.1 nM.
In the case of `COc1ccc2c(Cc3ccc(OCc4cc(C)no4)c(OC)c3)ccnc2c1` [Example 34], the EC50 in assay [1] was 493 nM; with EOC2 cell, 462 nM. In addition, on CSF-1R, the IC50 was 23.2 nM.
As to `COc1cnc2c(Cc3cnc(OCc4ccc5ccnn5c4)c(OC)c3)ccnc2c1` [Example 148], the EC50 stood at 37.3 nM in assay [1] and 49.8 nM in the assay with EOC2 cell. Also, the IC50 at CSF-1R amounted to 6.3 nM.
In the same order, the values of `COc1ccc(COc2ccc(Cc3ccnc4ccncc34)cc2OC)cc1` [Example 17] are 185 nM, 180 nM and 5.7 nM.
Take `COc1cnc2c(Cc3cnc(OCc4cc(C(C)OC)n(C)n4)c(OC)c3)ccnc2c1` (stereo not drawn) [Example 102]: the EC50 in assay [1] was 134 nM; in the assay on EOC2 cell, 77 nM. At CSF-1R, the IC50 came to 4 nM.
In the same order, the values of `COc1cnc2c(Cc3cnc(OCc4ccc(C(F)F)nc4)c(OC)c3)ccnc2c1` [Example 60] are 97.3 nM, 84.1 nM and 5.4 nM.
In the same order, the values of `COc1cnc2c(Cc3cnc(OCc4cnn(C(C)C)c4)c(OC)c3)ccnc2c1` [Example 43] are above 1000 nM, above 1000 nM and 2.8 nM.
In the same order, the values of `COc1cnc2c(Cc3cnc(OCc4ccn5nccc5c4)c(OC)c3)ccnc2c1` [Example 147] are 60.9 nM, 78.8 nM and 7.9 nM.
Consider `COc1cnc2c(Cc3cnc(OCc4cc5cccnc5[nH]4)c(OC)c3)ccnc2c1` [Example 149], for which the concentration giving a half-maximal response (EC50) worked out at 61.6 nM in assay [1] and 91.2 nM in the assay on EOC2 cell. Further, the IC50 on CSF-1R came out at 3.9 nM.
